Experimental data from BindingDB's records for doi:10.1021/jm00086a008 (Wellcome Research Laboratories, 1992).

molecular target: GAR transformylase (Sus scrofa); assay: In vitro inhibition of hog liver GAR transformylase with (6R)-10-formyl-FH4 as cofactor

Row | IC50 | SMILES
1 | 2.6 µM | Nc1nc(N)c(CCCSc2ccc(C(=O)NC(CCC(=O)O)C(=O)O)cc2)c(=O)[nH]1 (centres undefined)
2 | 18.2 µM | Nc1nc(N)c(CCCCNc2ccc(C(=O)NC(CCC(=O)O)C(=O)O)cc2)c(=O)[nH]1 (centres undefined)
3 | 5.3 µM | Nc1nc(N)c(CCCOc2ccc(C(=O)NC(CCC(=O)O)C(=O)O)cc2)c(=O)[nH]1 (centres undefined)

The remaining lines, values behind:

Row | SMILES | IC50
4 | Cc1cc(C(=O)NC(CCC(=O)O)C(=O)O)ccc1NCCCc1c(N)nc(N)[nH]c1=O (centres undefined) | 6.1 µM
5 | Nc1nc(N)c(CCCNc2ccc(C(=O)NC(CCC(=O)O)C(=O)O)cc2F)c(=O)[nH]1 (centres undefined) | 3.5 µM
6 | Nc1nnc(C2CCN(c3ccc(C(=O)NC(CCC(=O)O)C(=O)O)cc3)C2=O)c(=O)[nH]1 (centres undefined) | > 100 µM
7 | Nc1nc(N)c(CCCNc2ccc(C(=O)NC(CCC(=O)O)C(=O)O)c(Cl)c2)c(=O)[nH]1 (centres undefined) | 6.6 µM
8 | Nc1nc[nH]c(=O)c1CCCNc1ccc(C(=O)NC(CCC(=O)O)C(=O)O)cc1 (centres undefined) | 52 µM
9 | Nc1nc(N)c(CCCNc2ccc(C(=O)NC(CCC(=O)O)C(=O)O)c(F)c2)c(=O)[nH]1 (centres undefined) | 3.1 µM
